# Article PMC7221826, “5-Oxo-hexahydroquinoline Derivatives and Their Tetrahydroquinoline Counterparts as Multidrug Resistance Reversal Agents” (Molecules, 2020)
# Like-named read-outs stand apart in the source and are kept apart here.
# How the values were obtained:
# MCF-7 = test: MTT cell viability assay, MCF-7; assay type: cell-based, human; details: Homo sapiens, MCF7, 72 h, read-out: IC50 (µM) in Cultured Cells MCF-7
# From the text: (§1) Cell lines used for cytotoxicity assays included MCF-7 (human breast adenocarcinoma), A549 (human lung adenocarcinoma), K562 (human chronic myelogenous leukemia) and HEK-293 (human embryonic kidney) cells and were obtained from the Iranian Biological Resource Center, Tehran, Iran. MES-SA-DX5 multidrug resistant human uterine sarcoma, over-expressing P-gp and their parental non-resistant MES-SA cell lines were purchased from Sigma-Aldrich (St. Louis, MO, USA). All cells, except for HEK-293, were cultured in RPMI 1640 supplemented with 10% FBS and 100 units/mL penicillin-streptomycin at 37 °C in humidified air containing 5% CO2. HEK-293 cells were maintained in DMEM-F12 medium containing L-glutamine 2 mM supplemented with FBS and penicillin-streptomycin. MES-SA-DX5 cells were maintained in media containing 100 nM doxorubicin in order to ensure that only drug-resistant cells continue to grow.
# (§2) Cytotoxicity of the test compounds were evaluated by MTT assay. In this method, reduction of MTT, a yellow tetrazolium salt to the purple formazan, by cellular dehydrogenase enzymes is determined as an index of cell viability. Cancer cells were seeded into 96-well plates (3–5 × 10^3 cells/well) and incubated for 24 h at 37 °C. Afterwards, four different concentrations of synthesized derivatives were added in triplicate and the cells were incubated at 37 °C for another 72 h, after which the media was replaced with MTT solution at a concentration of 0.5 mg/mL was added for MTT assay. After another 4h, formazan crystals were dissolved in 200 μL DMSO for 90 min and absorbance was measured at a wavelength of 570 nm with background correction at 650 nm using a microplate reader (model 680, Bio-Rad, Hercules, CA, USA) and IC50 for each compound was calculated with CurveExpert version 1.34 for Windows.
# MES-SA-DX5 = test: MTT cell viability assay, MES-SA-DX5; assay type: cell-based, human; details: Homo sapiens, MES-SA/Dx5, 72 h, multidrug resistant, P-gp overexpressing, read-out: IC50 (µM) in Cultured Cells MES-SA-DX5
# From the text: as §1, §2
# A-549 = test: MTT cell viability assay, A-549; assay type: cell-based, human; details: Homo sapiens, A549, 72 h, read-out: IC50 (µM) in Cultured Cells A-549
# From the text: as §1, §2
# K562 = test: MTT cell viability assay, K562; assay type: cell-based, human; details: Homo sapiens, K562, 72 h, read-out: IC50 (µM) in Cultured Cells K562
# From the text: as §1, §2
# HEK-293 = test: MTT cell viability assay, HEK-293; assay type: cell-based, human; details: non-cancerous, read-out: IC50 (µM) in Cultured Cells HEK-293
# From the text: as §1, §2
# MES-SA = test: MTT cell viability assay, MES-SA; assay type: cell-based, human; details: for IC50: Homo sapiens, MES-SA, MTT, 72 h, parental non-resistant, read-out: IC50 (µM) in Cultured Cells MES-SA
# From the text: as §1, §2
# MES-SA-DX5 cells = test: Cell cycle analysis by propidium iodide (PI)-RNase flow cytometry; assay type: cell-based, human; set-up: Sub G1: unit not given here; details: 24 h
# Method: The analysis of cells in different phases of cell cycle and sub-G1 was performed using propidium iodide (PI)-RNase assay by flow cytometry. MES-SA-DX5 cells were seeded in 12-well plates (1 × 10^6 cells/well) and treated with different concentrations of synthesized compounds for 24 h. The cells were then collected, washed with PBS, and fixed with 70% ethanol overnight at –20 °C. After at least 24 h, fixed cells were washed with PBS and subsequently stained with a DNA staining solution containing PI 20 μg/mL and RNase 200 μg/mL at room temperature for 30 min in the dark. Twenty thousand cells of each sample were analyzed using a BD FACSCalibur flow cytometer (BD Biosciences, USA) and the amount of the cells in sub-G1, G0/G1, S, and G2/M phases were estimated using CellQuest (Becton Dickinson, San Jose, CA, USA) software.
# Therefore, it could be concluded that these compounds cause cytotoxicity in drug resistant MES-SA-DX5 cells by induction of apoptosis in these cells.
# Figure 3 Effect of synthesized derivatives on cell cycle alterations in MES-SA-DX5 drug resistant cells. The cells in different phases of cell cycle were monitored using propidium iodide (PI)-RNase assay by flow cytometry. MES-SA-DX5 cells were seeded in 12-well plates (1 × 10^6 cells/well) and treated with different concentrations of synthesized compounds for 24 h. The cells were then collected, washed with PBS and fixed with 70% ethanol overnight at –20 °C. After at least 24 h, fixed cells were washed with PBS and subsequently stained with a DNA staining solution containing PI 20 μg/mL and RNase 200 μg/mL at room temperature for 30 min in the dark. Twenty thousand cells of each sample were analyzed using a FACS Calibur flow cytometer (BD Biosciences, USA). Representative histograms of cells treated with synthesized compounds are shown. An increase in sub-G1 phase cells could be observed after treatment with A1, A2, B1, and B2 compounds.
Structure (SMILES),IC50 (MCF-7),melting point,IC50 (MES-SA-DX5),IC50 (A-549),IC50 (K562),IC50 (HEK-293; 72 h),"IC50 (HEK-293; Homo sapiens, HEK293, 72 h)",IC50 (MES-SA),G0/G1 (MES-SA-DX5 cells; 2.5 µM),G2/M (MES-SA-DX5 cells; 2.5 µM),S (MES-SA-DX5 cells; 2.5 µM),Sub G1 (MES-SA-DX5 cells; 2.5 µM),G0/G1 (MES-SA-DX5 cells; 5 µM),G2/M (MES-SA-DX5 cells; 5 µM),S (MES-SA-DX5 cells; 5 µM),Sub G1 (MES-SA-DX5 cells; 5 µM),"sensitivity of parental MES-SA cells compared to resistant cells (MES-SA; MES-SA vs MES-SA-DX5, MTT)"
"COc1ccc(C2C(C(=O)Nc3csc(C)n3)=C(C)NC3=C2C(=O)CCC3)cc1 (stereo not drawn) [Compound A7, 4-(4-Methoxyphenyl)-2-methyl-N-(2-methylthiazol-4-yl)-5-oxo-1,4,5,6,7,8-hexahydroquinoline-3-carboxamide]",> 100 µM,185 °C,> 100 µM,> 100 µM,> 100 µM,,,,,,,,,,,,
"COc1ccc(C2C(C(=O)Nc3csc(C)n3)=C(C)NC3=C2C(=O)CCC3)cc1OC (stereo not drawn) [Compound A8, 4-(3,4-Dimethoxyphenyl)-2-methyl-N-(2-methylthiazol-4-yl)-5-oxo-1,4,5,6,7,8-hexahydroquinoline-3-carboxamide]",> 100 µM,222 °C,> 100 µM,> 100 µM,> 100 µM,,,,,,,,,,,,
"Cc1nc(NC(=O)c2c(C)nc3c(c2-c2cccc(Cl)c2)C(=O)CCC3)cs1 [Compound B3, 4-(3-Chlorophenyl)-2-methyl-N-(2-methylthiazol-4-yl)-5-oxo-5,6,7,8-tetrahydroquinoline-3-carboxamide]",> 100 µM,241 °C,85.2 ± 7.4 µM,> 100 µM,50.2 ± 2.6 µM,> 100 µM,> 50 µM,> 100 µM,,,,,,,,,
"COc1cc(-c2c(C(=O)Nc3csc(C)n3)c(C)nc3c2C(=O)CCC3)cc(OC)c1OC [Compound B4, 2-Methyl-N-(2-methylthiazol-4-yl)-5-oxo-4-(3,4,5-trimethoxyphenyl)-5,6,7,8-tetrahydroquinoline-3-carboxamide]",> 100 µM,238 °C,> 100 µM,> 100 µM,> 100 µM,,,,,,,,,,,,
"CCOc1cc(-c2c(C(=O)Nc3csc(C)n3)c(C)nc3c2C(=O)CCC3)ccc1O [Compound B6, 4-(3-Ethoxy-4-hydroxyphenyl)-2-methyl-N-(2-methylthiazol-4-yl)-5-oxo-5,6,7,8-tetrahydroquinoline-3-carboxamide]",> 100 µM,267 °C,> 100 µM,> 100 µM,> 100 µM,,,,,,,,,,,,
"COc1ccc(-c2c(C(=O)Nc3csc(C)n3)c(C)nc3c2C(=O)CCC3)cc1 [Compound B7, 4-(4-Methoxyphenyl)-2-methyl-N-(2-methylthiazol-4-yl)-5-oxo-5,6,7,8-tetrahydroquinoline-3-carboxamide]",> 100 µM,166 °C,> 100 µM,> 100 µM,32.9 ± 5.1 µM,,,,,,,,,,,,
"COc1cccc2c1C(=O)c1c(O)c3c(c(O)c1C2=O)C[C@@](O)(C(=O)CO)C[C@@H]3O[C@H]1C[C@H](N)[C@H](O)[C@H](C)O1 [Doxorubicin, reference compound]",0.115 ± 0.042 µM,,2.2 ± 0.3 µM,0.575 ± 0.127 µM,0.042 ± 0.006 µM,,0.009 ± 0.002 µM,0.01 ± 0.002 µM,34.23 ± 3.3,52.10 ± 4.4,12.57 ± 1.4,1.08 ± 0.2,21.50 ± 2.5,64.13 ± 4.2,12.57 ± 1.7,1.81 ± 0.3,more than 200 times
